Values belong to the molecule of their own block, whether it stands above or below them. The source made the active and inactive calls. No cut-off for these calls is given here.
Experiments:
[1] = target: Bromodomain-containing protein 4 (Homo sapiens) (UniProt O60885); test: Inhibition of BRD4 in human MOLM-14 cells harboring FLT3-ITD mutant assessed as decrease in metabolic activity at 10 uM measured after 72 hrs by MTT assay; format: cell-based
[2] = target: Bromodomain-containing protein 4 (Homo sapiens) (UniProt O60885); test: Inhibition of BRD4 in human HEL cells harboring JAK2 V617F mutant assessed as decrease in metabolic activity at 10 uM measured after 72 hrs by MTT assay; format: cell-based
[3] = target: Bromodomain-containing protein 4 (Homo sapiens) (UniProt O60885); test: Inhibition of BRD4 in human K562 cells harboring BCR-ABL assessed as decrease in metabolic activity at 10 uM measured after 72 hrs by MTT assay; format: cell-based
[4] = target: Bromodomain-containing protein 2 (Homo sapiens) (UniProt P25440); test: Binding affinity to N-terminal His-tagged human recombinant BRD2 bromodomain 1 (71 to 194 residues) expressed in Escherichia coli assessed as change in melting temperature at 10 uM by BromoMELT assay
HEL [5] = test: Inhibition of BET in human HEL cells harboring JAK2 V617F mutant assessed as increase in HEXIM1 protein expression at 5 uM measured after 24 hrs by Western blot analysis; format: cell-based
MOLM-14 [6] = test: Inhibition of BET in human MOLM-14 cells harboring FLT3-ITD mutant assessed as increase in HEXIM1 protein expression at 5 uM measured after 24 hrs by Western blot analysis; format: cell-based
BMMC = test: Anticlonogenic activity against AML patient derived BMMC harboring FLT3-ITD/FLT3-TKD mutant assessed as reduction in colony formation at 1 to 5 uM measured after 7 to 11 days; format: functional, tissue-based; settings: Homo sapiens, dose microM 1-5, time day 7-11
K562 [7] = test: Inhibition of BET in human K562 cells harboring BCR-ABL assessed as increase in HEXIM1 protein expression at 5 uM measured after 24 to 48 hrs by Western blot analysis; format: cell-based; settings: time hrs 24-48
[8] = Cytotoxicity against human PBMC assessed as reduction in colony formation at 1 to 5 uM measured after 7 to 11 days; format: tissue-based; settings: dose 1-5 µM, time 7-11 day
[9] = Cytotoxicity against human CD34+ cells assessed as reduction in colony formation at 1 to 5 uM measured after 7 to 11 days; format: cell-based; settings: cd34-positive (myeloid/lymphoid) cell, dose 1-5 µM, time 7-11 day
[10] = target: Bromodomain-containing protein 4 (Homo sapiens) (UniProt O60885); test: Inhibition of BRD4 in human HEL cells harboring JAK2 V617F mutant assessed as metabolic activity at 1 uM measured after 72 hrs by MTT assay relative to control; format: cell-based; set-up: Activity: scale not given: the % may be the effect or the level left
HEL [11] = test: Induction of apoptosis in human HEL cells harboring JAK2 V617F mutant assessed as cleavage of PARP-1 at 5 uM measured after 24 to 48 hrs by Western blot analysis; format: functional, cell-based; settings: time hrs 24-48
MOLM-14 [12] = test: Induction of apoptosis in human MOLM-14 cells harboring FLT3-ITD mutant assessed as cleavage of PARP-1 at 5 uM measured after 24 to 48 hrs by Western blot analysis; format: functional, cell-based; settings: time hrs 24-48
MOLM-14 [13] = test: Inhibition of BET in human MOLM-14 cells harboring FLT3-ITD mutant assessed as decrease in AURKB protein expression at 5 uM measured after 48 hrs by Western blot analysis; format: cell-based
K562 [14] = test: Inhibition of BET in human K562 cells harboring BCR-ABL assessed as decrease in AURKB protein expression at 5 uM measured after 48 hrs by Western blot analysis; format: cell-based
HEL [15] = test: Inhibition of BET in human HEL cells harboring JAK2 V617F mutant assessed as increase in HEXIM1 protein expression at 5 uM measured after 24 to 48 hrs by Western blot analysis; format: cell-based; settings: time hrs 24-48
MOLM-14 [16] = test: Inhibition of BET in human MOLM-14 cells harboring FLT3-ITD mutant assessed as increase in HEXIM1 protein expression at 5 uM measured after 24 to 48 hrs by Western blot analysis; format: cell-based; settings: time hrs 24-48
[17] = target: Bromodomain-containing protein 4 (Homo sapiens) (UniProt O60885); test: Inhibition of BRD4 in human MOLM-14 cells harboring FLT3-ITD mutant assessed as metabolic activity at 1 uM measured after 72 hrs by MTT assay relative to control; format: cell-based; set-up: scale not given: the % may be the effect or the level left
[18] = target: Bromodomain-containing protein 4 (Homo sapiens) (UniProt O60885); test: Binding affinity to N-terminal His-tagged human recombinant BRD4 bromodomain 1 (44-170 residues) expressed in Escherichia coli assessed as change in melting temperature at 10 uM by BromoMELT assay
[19] = target: Bromodomain-containing protein 4 (Homo sapiens) (UniProt O60885); test: Inhibition of BRD4 in human HEL cells harboring JAK2 V617F mutant assessed as reduction in cell proliferation at 1 to 5 uM after 72 hrs by tryphan blue staining based assay; settings: dose microM 1-5, time 72.0 hrs
[20] = target: Bromodomain-containing protein 4 (Homo sapiens) (UniProt O60885); test: Inhibition of BRD4 in human MOLM-14 cells harboring FLT3-ITD mutant assessed as reduction in cell proliferation at 1 to 5 uM after 72 hrs by tryphan blue staining based assay; settings: dose microM 1-5, time 72.0 hrs
[21] = target: Bromodomain-containing protein 4 (Homo sapiens) (UniProt O60885); test: Inhibition of BRD4 in human K562 cells harboring BCR-ABL assessed as reduction in cell proliferation at 1 to 5 uM after 72 hrs by tryphan blue staining based assay; settings: dose microM 1-5, time 72.0 hrs
[22] = target: Bromodomain-containing protein 4 (Homo sapiens) (UniProt O60885); test: Inhibition of BRD4 in human HEL cells harboring JAK2 V617F mutant assessed as cell cycle arrest by measuring increase in cell population at G0/G1 phase at 1 to 5 uM measured after 24 hrs by propidium iodide staining based FACS analysis; settings: dose microM 1-5, time 24.0 hrs
[23] = target: Bromodomain-containing protein 4 (Homo sapiens) (UniProt O60885); test: Inhibition of BRD4 in human HEL cells harboring JAK2 V617F mutant assessed as cell cycle arrest by measuring decrease in cell population at S phase at 1 to 5 uM measured after 24 hrs by propidium iodide staining based FACS analysis; settings: dose microM 1-5, time 24.0 hrs
[24] = target: Bromodomain-containing protein 4 (Homo sapiens) (UniProt O60885); test: Inhibition of BRD4 in human HEL cells harboring JAK2 V617F mutant assessed as cell cycle arrest by measuring increase in cell population at sub-G1 phase at 1 to 5 uM measured after 24 hrs by propidium iodide staining based FACS analysis; settings: dose microM 1-5, time 24.0 hrs
[25] = target: Bromodomain-containing protein 4 (Homo sapiens) (UniProt O60885); test: Inhibition of BRD4 in human MOLM-14 cells harboring FLT3-ITD mutant assessed as cell cycle arrest by measuring increase in cell population at G0/G1 phase at 1 to 5 uM measured after 24 hrs by propidium iodide staining based FACS analysis; settings: dose microM 1-5, time 24.0 hrs
[26] = target: Bromodomain-containing protein 4 (Homo sapiens) (UniProt O60885); test: Inhibition of BRD4 in human MOLM-14 cells harboring FLT3-ITD mutant assessed as cell cycle arrest by measuring decrease in cell population at S phase at 1 to 5 uM measured after 24 hrs by propidium iodide staining based FACS analysis; settings: dose microM 1-5, time 24.0 hrs
[27] = target: Bromodomain-containing protein 4 (Homo sapiens) (UniProt O60885); test: Inhibition of BRD4 in human MOLM-14 cells harboring FLT3-ITD mutant assessed as cell cycle arrest by measuring increase in cell population at sub-G1 phase at 1 to 5 uM measured after 24 hrs by propidium iodide staining based FACS analysis; settings: dose microM 1-5, time 24.0 hrs
[28] = target: Bromodomain-containing protein 4 (Homo sapiens) (UniProt O60885); test: Inhibition of BRD4 in human HEL cells harboring JAK2 V617F mutant assessed as cell viability at 5 uM measured after 72 hrs by tryphan blue staining based assay relative to control
[29] = target: Bromodomain-containing protein 4 (Homo sapiens) (UniProt O60885); test: Inhibition of BRD4 in human MOLM-14 cells harboring FLT3-ITD mutant assessed as cell viability at 5 uM measured after 72 hrs by tryphan blue staining based assay relative to control
K562 [30] = test: Induction of apoptosis in human K562 cells harboring BCR-ABL assessed as cleavage of PARP-1 at 5 uM measured after 24 to 48 hrs by Western blot analysis; format: functional, cell-based; settings: time hrs 24-48
[31] = target: Bromodomain-containing protein 4 (Homo sapiens) (UniProt O60885); test: Inhibition of BRD4 in human K562 cells harboring BCR-ABL assessed as decrease in metabolic activity at 0.01 to 20 uM measured after 72 hrs by MTT assay; format: cell-based; settings: dose microM 0.01-20, time 72.0 hrs
HEL [32] = test: Inhibition of BET in human HEL cells harboring JAK2 V617F mutant assessed as decrease in AURKB protein expression at 5 uM measured after 24 to 48 hrs by Western blot analysis; format: cell-based; settings: time hrs 24-48
MOLM-14 [33] = test: Inhibition of BET in human MOLM-14 cells harboring FLT3-ITD mutant assessed as decrease in AURKB protein expression at 5 uM measured after 24 to 48 hrs by Western blot analysis; format: cell-based; settings: time hrs 24-48
HEL [34] = test: Inhibition of BET in human HEL cells harboring JAK2 V617F mutant assessed as increase in HEXIM1 protein expression at 5 uM preincubated in medium for 24 to 48 hrs followed by cell addition and measured after 24 hrs by Western blot analysis; format: cell-based; settings: time 96.0 hrs
MOLM-14 [35] = test: Inhibition of BET in human MOLM-14 cells harboring FLT3-ITD mutant assessed as increase in HEXIM1 protein expression at 5 uM preincubated in medium for 24 to 48 hrs followed by cell addition and measured after 24 hrs by Western blot analysis; format: cell-based; settings: time 96.0 hrs
K562 [36] = test: Inhibition of BET in human K562 cells harboring BCR-ABL assessed as increase in HEXIM1 protein expression at 5 uM preincubated in medium for 24 to 48 hrs followed by cell addition and measured after 24 hrs by Western blot analysis; format: cell-based; settings: time 96.0 hrs

Sequence of Bromodomain-containing protein 2 (Homo sapiens) (P25440 whole entry, looked up, the tested form may be a part): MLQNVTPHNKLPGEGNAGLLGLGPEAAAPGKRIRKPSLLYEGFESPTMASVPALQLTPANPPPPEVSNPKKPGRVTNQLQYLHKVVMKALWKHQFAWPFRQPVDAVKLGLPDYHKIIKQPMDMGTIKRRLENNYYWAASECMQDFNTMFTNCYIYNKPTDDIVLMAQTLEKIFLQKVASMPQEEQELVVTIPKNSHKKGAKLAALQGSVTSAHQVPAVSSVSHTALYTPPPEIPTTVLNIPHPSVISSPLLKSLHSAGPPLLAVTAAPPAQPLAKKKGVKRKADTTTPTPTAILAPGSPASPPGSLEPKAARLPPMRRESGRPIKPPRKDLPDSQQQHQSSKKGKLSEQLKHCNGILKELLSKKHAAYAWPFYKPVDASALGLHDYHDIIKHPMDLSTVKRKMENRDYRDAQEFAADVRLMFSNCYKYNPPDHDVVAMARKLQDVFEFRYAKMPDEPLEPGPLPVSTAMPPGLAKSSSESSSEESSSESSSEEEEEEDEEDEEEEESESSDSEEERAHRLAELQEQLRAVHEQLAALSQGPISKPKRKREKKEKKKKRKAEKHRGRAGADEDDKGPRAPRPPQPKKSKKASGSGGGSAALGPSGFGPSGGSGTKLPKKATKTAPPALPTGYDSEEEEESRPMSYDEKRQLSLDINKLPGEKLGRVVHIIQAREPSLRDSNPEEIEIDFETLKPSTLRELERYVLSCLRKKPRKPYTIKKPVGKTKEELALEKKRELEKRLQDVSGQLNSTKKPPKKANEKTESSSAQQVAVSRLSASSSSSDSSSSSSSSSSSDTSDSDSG

Structure (SMILES): CN1Cc2cc(N=S(C)(=N)c3ccccc3)ccc2NC1=O (stereo unspecified)
inhibition [1]: Active
inhibition [2]: Active
inhibition [3]: inactive

Structure (SMILES): CN=S(C)(=Nc1ccc2c(c1)CN(C)C(=O)N2)c1ccccc1 (stereo unspecified)
inhibition [1]: Active
inhibition [2]: Active
inhibition [3]: inactive

Structure (SMILES): COc1ccccc1S(=O)(=O)Nc1ccc2c(c1)CN(C)C(=O)N2
ΔTm [4]: 3.5 °C
inhibition (HEL [5]): Active
inhibition (MOLM-14 [6]): Active
Activity (BMMC): Active
inhibition (K562 [7]): Active
Activity [8]: Toxic
Activity [9]: Toxic

Structure (SMILES): CN1Cc2cc(N=S(C)(=Nc3ccccc3)c3ccccc3)ccc2NC1=O (stereo unspecified)
inhibition [1]: Active
inhibition [2]: Active
inhibition [3]: inactive

Second part, led by results:

inhibition [1]: Active
inhibition [2]: Active
inhibition [3]: inactive
Structure (SMILES): COc1ccccc1S(C)(=O)=Nc1ccc2c(c1)CN(C)C(=O)N2 (stereo unspecified)

inhibition [10]: inactive
Structure (SMILES): CN1Cc2cc(N=[S@](C)(=O)c3ccccc3)ccc2NC1=O
Activity (HEL [11]): inactive
Activity (MOLM-14 [12]): inactive
inhibition (MOLM-14 [13]): Active
inhibition (K562 [14]): Active
inhibition (HEL [15]): inactive
inhibition (MOLM-14 [16]): inactive

Activity [10]: 37%
Activity [17]: 55%
ΔTm [4]: 3.5 °C
ΔTm [18]: 5 °C
inhibition [19]: Active
inhibition [20]: Active
inhibition [21]: Active
inhibition [22]: Active
inhibition [23]: Active
inhibition [24]: Active
inhibition [25]: Active
inhibition [26]: Active
inhibition [27]: Active
inhibition [31]: inactive
Structure (SMILES): CN1Cc2cc(N=[S@@](C)(=O)c3ccccc3)ccc2NC1=O
Activity [28]: 55%
Activity [29]: 57%
Activity (HEL [11]): Active
Activity (MOLM-14 [12]): Active
Activity (K562 [30]): inactive
inhibition (HEL [5]): Active
inhibition (MOLM-14 [6]): Active
Activity (BMMC): Active
inhibition (HEL [32]): Active
inhibition (MOLM-14 [33]): Active
inhibition (K562 [7]): Active
inhibition (HEL [34]): Active
inhibition (MOLM-14 [35]): Active
inhibition (K562 [36]): Active
Activity [8]: Toxic
Activity [9]: Toxic

Source: ChEMBL document CHEMBL4725438, “Chiral Analogues of PFI-1 as BET Inhibitors and Their Functional Role in Myeloid Malignancies” (ACS Med Chem Lett, 2020)
